Assay [1] has as its system GAR15-13 PDX. Put plainly: GAR15-13 PDX model of CDKi resistance in NSG mice. It is filed as in vivo. As to conditions: palbociclib-resistant patient tumor. An excerpt: Data were presented as mean values±s.e.m. […] Data represented the mean±s.e.m. of four replicate cell culture wells per condition. […] P values are indicated by gray asterisks, where ****P<0.0001 for all highlighted comparisons.
Tissue samples from an ER-positive, PR-negative, and HER2-negative (ER^+, PR^−, HER2^−) patient that progressed on (i.e., was resistant to) palbociclib were implanted into animal (NSG mice) models and grown as a patient-derived xenograft (PDX). […] This human tumor model also had amplification of the cyclin D1 (CCND1^Amp) gene which has been implicated as a driver of therapeutic resistance to CDKi. […] This is also observed in other models tested in vitro including a palbociclib resistant MCF-7 (MCF7 palbo^R) line (FIG. 44B).

The target in assay [2] is T1, ER-α (Rattus norvegicus, UniProt P06211).
T1 construct: expressed in transfected cells
T1 sequence (P06211 whole entry): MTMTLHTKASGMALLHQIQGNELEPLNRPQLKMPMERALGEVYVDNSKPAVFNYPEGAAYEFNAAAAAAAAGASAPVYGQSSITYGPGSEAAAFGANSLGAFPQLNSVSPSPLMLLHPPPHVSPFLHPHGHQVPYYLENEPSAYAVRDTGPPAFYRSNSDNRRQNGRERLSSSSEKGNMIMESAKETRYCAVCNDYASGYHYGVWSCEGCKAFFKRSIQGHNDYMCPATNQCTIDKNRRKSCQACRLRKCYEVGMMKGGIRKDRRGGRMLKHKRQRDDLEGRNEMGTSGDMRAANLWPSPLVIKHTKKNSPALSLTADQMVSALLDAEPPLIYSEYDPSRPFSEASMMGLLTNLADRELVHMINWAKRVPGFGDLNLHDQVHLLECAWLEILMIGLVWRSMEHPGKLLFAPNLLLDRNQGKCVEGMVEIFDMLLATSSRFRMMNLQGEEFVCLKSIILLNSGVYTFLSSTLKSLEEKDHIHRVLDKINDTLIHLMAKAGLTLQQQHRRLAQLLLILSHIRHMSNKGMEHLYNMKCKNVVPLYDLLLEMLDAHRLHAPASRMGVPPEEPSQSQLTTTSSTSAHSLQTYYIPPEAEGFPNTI
Put plainly: Transcriptional activation (luciferase) in HEK-293 cells. It is filed as cell-based. The protocol: (§1) Rat GR, MR, PR, ER-α and ER-β were individually cloned into a pCR3.1 vector backbone. Sequencing was performed to verify the absence of any mutations. HEK-293 cells were plated at 90,000 cells per well of a 24 well plate in Dulbecco's Minimal Essential Media supplemented with 5% charcoal-stripped FBS. […] Luciferase assays were performed 48 h after transfection. Transcriptional activation values are represented as firefly luciferase normalized to renilla luciferase.

The target of assay [3] is T2, GR (Rattus norvegicus, UniProt P06536).
T2 construct: expressed in transfected cells
T2 sequence (P06536 whole entry): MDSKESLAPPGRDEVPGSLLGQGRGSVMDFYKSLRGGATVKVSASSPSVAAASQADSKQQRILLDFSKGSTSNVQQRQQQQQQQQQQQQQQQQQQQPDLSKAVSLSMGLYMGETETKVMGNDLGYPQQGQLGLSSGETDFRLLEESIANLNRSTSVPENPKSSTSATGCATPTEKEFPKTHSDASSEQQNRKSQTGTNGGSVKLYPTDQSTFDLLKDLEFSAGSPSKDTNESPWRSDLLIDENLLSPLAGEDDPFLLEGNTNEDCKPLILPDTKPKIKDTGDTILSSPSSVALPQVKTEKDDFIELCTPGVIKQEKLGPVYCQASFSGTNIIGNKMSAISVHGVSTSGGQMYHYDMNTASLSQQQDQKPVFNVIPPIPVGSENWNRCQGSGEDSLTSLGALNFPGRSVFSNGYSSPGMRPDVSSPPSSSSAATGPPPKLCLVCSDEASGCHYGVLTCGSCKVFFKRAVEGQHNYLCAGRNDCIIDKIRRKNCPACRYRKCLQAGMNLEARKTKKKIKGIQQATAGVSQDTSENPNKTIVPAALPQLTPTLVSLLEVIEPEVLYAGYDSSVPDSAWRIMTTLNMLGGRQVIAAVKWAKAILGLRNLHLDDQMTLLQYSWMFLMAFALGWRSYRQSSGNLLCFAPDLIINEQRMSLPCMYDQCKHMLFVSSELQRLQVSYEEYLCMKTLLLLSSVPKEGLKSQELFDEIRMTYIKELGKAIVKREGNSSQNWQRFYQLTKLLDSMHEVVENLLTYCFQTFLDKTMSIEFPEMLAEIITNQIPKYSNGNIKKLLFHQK
Described as above. It is filed as cell-based. The protocol: as §1

The target of assay [4] is T3, MR (Rattus norvegicus, UniProt P22199).
T3 construct: expressed in transfected cells
T3 sequence (P22199 1-981): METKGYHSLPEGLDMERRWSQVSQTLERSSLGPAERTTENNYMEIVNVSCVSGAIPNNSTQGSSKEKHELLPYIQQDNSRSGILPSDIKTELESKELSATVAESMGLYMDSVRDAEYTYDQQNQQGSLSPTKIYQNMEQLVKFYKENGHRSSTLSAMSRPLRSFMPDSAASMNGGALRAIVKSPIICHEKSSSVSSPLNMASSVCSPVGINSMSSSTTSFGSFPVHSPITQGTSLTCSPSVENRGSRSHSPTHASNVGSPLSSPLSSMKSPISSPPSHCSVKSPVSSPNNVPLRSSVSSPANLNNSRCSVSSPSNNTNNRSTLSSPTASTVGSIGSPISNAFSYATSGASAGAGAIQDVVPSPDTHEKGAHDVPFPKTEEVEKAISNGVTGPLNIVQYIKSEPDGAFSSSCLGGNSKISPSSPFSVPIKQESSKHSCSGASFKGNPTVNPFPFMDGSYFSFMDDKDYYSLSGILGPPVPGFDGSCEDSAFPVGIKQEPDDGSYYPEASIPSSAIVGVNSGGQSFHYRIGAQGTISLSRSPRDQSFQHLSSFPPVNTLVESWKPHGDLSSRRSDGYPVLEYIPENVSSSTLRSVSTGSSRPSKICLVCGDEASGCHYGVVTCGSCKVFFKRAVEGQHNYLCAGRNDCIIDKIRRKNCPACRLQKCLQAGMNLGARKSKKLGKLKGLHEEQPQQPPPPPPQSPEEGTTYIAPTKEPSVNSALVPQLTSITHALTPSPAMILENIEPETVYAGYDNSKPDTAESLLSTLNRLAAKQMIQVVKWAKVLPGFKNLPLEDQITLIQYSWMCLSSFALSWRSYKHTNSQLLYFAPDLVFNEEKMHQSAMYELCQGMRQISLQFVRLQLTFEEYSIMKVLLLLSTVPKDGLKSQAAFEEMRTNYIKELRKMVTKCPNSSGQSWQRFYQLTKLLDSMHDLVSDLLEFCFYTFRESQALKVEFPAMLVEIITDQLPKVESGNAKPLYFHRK
Described as above. It is filed as cell-based. The protocol: as §1

Assay [5] concerns the target T4, PR (Rattus norvegicus, UniProt Q63449).
T4 construct: expressed in transfected cells
T4 sequence (Q63449 1-923): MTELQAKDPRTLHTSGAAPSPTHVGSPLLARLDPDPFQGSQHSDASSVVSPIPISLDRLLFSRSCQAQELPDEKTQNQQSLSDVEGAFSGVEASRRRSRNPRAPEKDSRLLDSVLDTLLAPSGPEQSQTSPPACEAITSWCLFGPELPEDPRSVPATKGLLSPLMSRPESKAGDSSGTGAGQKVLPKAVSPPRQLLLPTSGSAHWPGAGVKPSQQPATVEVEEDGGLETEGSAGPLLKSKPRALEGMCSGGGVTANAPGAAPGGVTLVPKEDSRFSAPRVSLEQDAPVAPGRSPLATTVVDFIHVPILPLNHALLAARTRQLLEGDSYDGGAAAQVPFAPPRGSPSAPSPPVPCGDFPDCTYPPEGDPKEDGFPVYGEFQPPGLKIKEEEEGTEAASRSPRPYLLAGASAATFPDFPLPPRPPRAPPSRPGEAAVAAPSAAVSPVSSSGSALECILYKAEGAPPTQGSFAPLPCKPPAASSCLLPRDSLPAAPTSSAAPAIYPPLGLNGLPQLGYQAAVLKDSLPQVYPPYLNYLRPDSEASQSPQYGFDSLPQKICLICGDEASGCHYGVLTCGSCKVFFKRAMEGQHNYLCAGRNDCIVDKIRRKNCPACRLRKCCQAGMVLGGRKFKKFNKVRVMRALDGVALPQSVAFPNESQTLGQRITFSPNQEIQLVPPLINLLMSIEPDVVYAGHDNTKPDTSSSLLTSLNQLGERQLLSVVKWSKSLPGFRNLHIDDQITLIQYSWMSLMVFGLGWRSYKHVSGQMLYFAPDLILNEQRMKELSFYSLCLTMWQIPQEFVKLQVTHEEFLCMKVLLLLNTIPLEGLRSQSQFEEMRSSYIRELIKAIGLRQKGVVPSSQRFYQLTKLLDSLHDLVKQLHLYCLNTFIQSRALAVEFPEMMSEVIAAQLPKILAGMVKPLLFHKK
Described as above. It is filed as cell-based. The method, then:
as §1

Where [6] appears, read: agonist mode, all tested concentrations.

This note sets out measurements from patent publication US20230172897A1, “METHODS OF TREATING BREAST CANCERS WITH SELECTIVE ANDROGEN RECEPTOR MODULATORS AND ADDITIONAL THERAPEUTIC AGENTS” (VERU, INC., priority 2021, published 2023).

SMILES strings stand for the structures.

For `C[C@](O)(COc1ccc(C#N)cc1)C(=O)Nc1ccc(C#N)c(C(F)(F)F)c1` [Formula IX, (S)—N-(4-Cyano-3-(trifluoromethyl)phenyl)-3-(4-cyanophenoxy)-2-hydroxy-2-methylpropanamide], the “GAR15-13 PDX tumor growth” value in assay [1] is listed as “responsive”.

Consider `C[C@](O)(COc1ccc(C#N)cc1)C(=O)Nc1ccc(C#N)c(Cl)c1` [Formula VIII, (S)—N-(3-chloro-4-cyanophenyl)-3-(4-cyanophenoxy)-2-hydroxy-2-methylpropanamide], for which, in assay [2] (agonist mode, highest tested concentration 1 μM), the ER-α-mediated transactivation entry is reported as “failed to activate”. Also, in assay [2] (antagonist mode), the “17β-estradiol-induced ER-α activity” value is reported as “failed to alter”. The GR-mediated transactivation result in assay [3] (setting [6]) was “did not induce”. The “dexamethasone-induced GR-mediated transactivation” value in assay [3] (antagonist mode) is on record as “failed to alter”. For the same compound, in assay [4] (setting [6]), the MR-mediated transactivation entry is “did not induce”. In assay [4] (antagonist mode), the “aldosterone-induced MR-mediated transactivation” value is given as “failed to alter”. In addition, in assay [5] (agonist mode), the “fold weaker than the endogenous agonist for PR” value is on record as “greater than 10,000 fold”. Moreover, the “increase of PR transactivation” value in assay [5] (agonist mode, 1 μM) stood at 3 fold. Also, in assay [5] (agonist mode, 10 μM), the “increase of PR transactivation” value is 8 fold. Further, in assay [5] (antagonist mode), the “PR antagonist potency in comparison to Formula IX (times more potent)” value worked out at 10 times; the “PR antagonist potency in comparison to R-enantiomer of Formula IX (times more potent)” value was found to be 100 times; the “PR antagonist potency in comparison to RU486 (fold weaker)” value is “about 1,000 fold”; the “inhibition of PR activity, dose response” value is given as “potent partial inhibition”.
